Experimental data reported in patent publication US4935505A, “Novel azolo [1,3] diazepine-5-ol compounds and their uses” (priority 1988, dated 1990).
Read-outs that look alike come from different tables or passages of the source. One block for each compound: values may come before it.

Legend:
adenosine deaminase = adenosine deaminase (Homo sapiens, UniProt P00813); assay: Inhibition of adenosine deaminase (ADA), adenosine as substrate, purified enzyme; assay type: biochemical
Text: The mixture of the R and S isomers of the 4,5,6-trihydro-1-(β-D-ribofuranosyl) pyrazolo [5,4-d]

[1] = tested on: human erythrocytic adenosine deaminase; settings: cited from earlier work
[2] = clinical trials; cited from earlier work
[3] = Inhibition of Adenosine Deaminase by Target Compounds, adenosine as substrate, purified enzyme, read-out: Ki

Sequence of adenosine deaminase (P00813 whole entry): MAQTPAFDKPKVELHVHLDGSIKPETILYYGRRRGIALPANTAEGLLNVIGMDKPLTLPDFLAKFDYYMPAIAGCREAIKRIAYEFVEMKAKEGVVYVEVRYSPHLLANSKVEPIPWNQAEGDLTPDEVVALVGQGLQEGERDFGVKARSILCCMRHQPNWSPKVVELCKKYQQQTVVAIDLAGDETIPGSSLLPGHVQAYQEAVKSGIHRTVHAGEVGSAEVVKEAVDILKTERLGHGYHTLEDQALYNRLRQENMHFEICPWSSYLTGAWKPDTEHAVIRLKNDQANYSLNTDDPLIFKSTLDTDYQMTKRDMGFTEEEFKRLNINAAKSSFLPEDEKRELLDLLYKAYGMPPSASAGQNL

Compound: OC[C@H]1O[C@@H](n2ncc3c2N=CNCC3O)[C@H](O)[C@@H]1O (mixture of isomers) [(3 + 26), 4,5,6-Tihydro-1-(β-D-ribofuranosyl)pyrazolo [5,4-d]-[1,3] diazepin-4(R,S)-ol]
Ki (adenosine deaminase; [3]): 2 µM

Ki (adenosine deaminase): 0.00012 µM
Compound: OC[C@H]1O[C@@H](n2cnc3c2N=CNC[C@H]3O)[C@H](O)[C@@H]1O [2, coformycin, reference compound]
tight binding inhibition [1]: exceedingly tight binding inhibitors

Compound: OC[C@H]1O[C@@H](n2nnc3c2N=CNC[C@H]3O)[C@H](O)[C@@H]1O [4 (R), 6,7,8-Trihydro-3-β-D-ribofuranosyl-v-triazole [4,5-d] [1,3] diazepin-8(R,S)-ol]
Ki (adenosine deaminase; Preliminary estimates based on conventional kinetic analysis, adenosine as substrate, purified enzyme, read-out: Ki): 0.002 µM
type of inhibition of ADA (adenosine deaminase; adenosine as substrate, purified enzyme, listed as Compound 4): very tight-bindinginhibitor
type of inhibition of ADA (adenosine deaminase; adenosine as substrate, purified enzyme, listed as compound 4): potent tight-binding inhibitor

Compound: OC[C@H]1O[C@@H](n2nnc3c2N=CNC[C@@H]3O)[C@H](O)[C@@H]1O [37 (S), 6,7,8-Trihydro-3-β-D-ribofuranosyl-v-triazole [4,5-d] [1,3] diazepin-8(R,S)-ol]
Ki (adenosine deaminase; [3]): 85 µM

Compound: OC[C@H]1O[C@@H](n2cnc3c2NC=NC[C@H]3O)C[C@@H]1O [pentostatin, 8(R)-3-(2-deoxy-β-D-erythro-pentofuranosyl)-3,6,7,8-tetrahydroimidazo[4,6-d][1,3]diazepin-8-ol]
tight binding inhibition [1]: exceedingly tight binding inhibitors
acute renal toxicity [2]: acute renal toxicity
